Experimental data taken from patent US9272980B2, “Anticancer agent” (KTN BioTec, Inc., priority 2014, dated 2016).

Assays:
[1] = tested on: human malignant pleural mesothelioma cell lines (NCI-H28, NCI-H2052, NCI-H2452 and MSTO-211H cells); test: MTT cell viability assay, malignant mesothelioma cell lines; type: cell-based; conditions: 24 hr
Source text: Cancer cells (NCI-H28, NCI-H2052, NCI-H2452 and MSTO-211H) treated or not treated with a given concentration of each test compound for 24 hr were subjected to MTT assay. […] As a control, MTT intensity of the cells not treated with any of naftopidil and the aryloxy derivative of the present invention was used.
NCI-H28, NCI-H2052, NCI-H2452 and MSTO-211H cells were used as human malignant pleural mesothelioma cell lines. These cells were purchased from American Type Culture Collection (Manassas, Va., USA). The cells were cultured in RPMI (Roswell Park Memorial Institute)-1640 medium added with 0.003% (W/V) L-glutamine.
(§1) In all cultures, the medium was supplied with 10% (v/v) heat inactivated bovine serum, penicillin (final concentration 100 U/ml) and streptomycin (final concentration 0.1 mg/ml), and culture was performed at 37° C. under humidification atmosphere of 5% CO2 and 95% air.
(§2) The cell viability was measured by a method using MTT (3-(4,5-dimethyl-2-thiazolyl)-2,5-diphenyl-2H-tetrazolium bromide) in the same manner as in a published report (Cell Physiol Biochem 2012; 30: 61-74).

[2] = tested on: human kidney cancer cell lines (ACHN, RCC4-VHL, and 786-O cells); test: MTT cell viability assay, kidney cancer cell lines; type: cell-based; conditions: 1-100 μM, 24 hr
Source text: (§3) The following cell lines treated or not treated with a given concentration of HUHS1015 for 24 hr were subjected to MTT assay. (A) lung cancer cell line (B) liver cancer cell line (C) gastric cancer cell line (D) bladder cancer cell line (E) prostate cancer cell line (F) kidney cancer cell line. […] As a control, MTT intensity of the cells not treated with HUHS1015 was used.
ACHN cells, RCC4-VHL cells and 786-O cells were used as human kidney cancer cell lines. These cells were purchased from European Collection of Animal Cell Cultures (ECACC; Salisbury, UK), and cultured in DMEM.
as §1, §2

[3] = tested on: human liver cancer cell lines (HepG2 and HuH-7 cells); test: MTT cell viability assay, liver cancer cell lines; type: cell-based; conditions: HepG2, HuH-7 cells, 1-100 μM, 24 hr
Source text: as §3
HepG2 cells and HuH-7 cells were used as human […] cancer cell lines. These cells were obtained from RIKEN cell bank (Ibaraki, Japan) and cultured in DMEM (Dulbecco's Modified Eagles Medium).
as §1, §2

[4] = tested on: human prostate cancer cell lines (DU145, LNCap, and PC-3 cells); test: MTT cell viability assay, prostate cancer cell lines; type: cell-based; conditions: 1-100 μM, 24 hr
Source text: as §3
DU145 cells, LNCap cells and PC-3 cells were used as human prostate cancer cell lines. These cells were purchased from American Type Culture Collection. The DU145 cells were cultured in DMEM. The LNCaP and PC-3 cells were cultured in RPMI-1640 medium.
as §1, §2

[5] = tested on: human bladder cancer cell lines (253J, 5637, KK-47, TCCSUP, T24, and UM-UC-3 cells); test: MTT cell viability assay, bladder cancer cell lines; type: cell-based; conditions: T24, UM-UC-3 cells, 1-100 μM, 24 hr
Source text: as §3
253J cells, 5637 cells, KK-47 cells, TCCSUP cells, T24 cells and UM-UC-3 cells were used as human bladder cancer cell lines.
KK-47 cells were provided by Dr. Naito (Department of Urology, Kyushu University, Fukuoka, Japan). 253J cells, 5637 cells, TCCSUP cells, T24 cells and UM-UC-3 cells were purchased from American Type Culture Collection (Manassas, Va., USA). All cells were cultured in RPMI-1640 medium.
as §1, §2

[6] = tested on: human lung cancer cell lines (A549, SBC-3, and Lu-65 cells); test: MTT cell viability assay, lung cancer cell lines; type: cell-based; conditions: A549, SBC-3, Lu-65 cells, 1-100 μM, 24 hr
Source text: as §3
A549, SBC-3 and Lu-65 cells were used as human lung cancer cell lines. These cells were purchased from Health Science Research Resources Bank (Osaka, Japan). A549 cells and SBC-3 cells were cultured in MEM (minimum essential medium) added with 0.1 mM non-essential amino acid, and Lu-65 cells were cultured in RPMI-1640 medium.
as §1, §2

[7] = tested on: human gastric cancer cell lines (MKN-28 and MKN-45 cells); test: MTT cell viability assay, gastric cancer cell lines; type: cell-based; conditions: MKN-28, MKN-45 cells, 1-100 μM, 24 hr
Source text: as §3
MKN-28 cells and MKN-45 cells were used as human gastric cancer cell lines. These cells were obtained from Dr. Tatematsu (Nagoya University, Japan) and cultured in RPMI-1640 medium.
as §1, §2

[8] = tested on: MKN45 gastric cancer cells; test: Growth of subcutaneously inoculated MKN45 gastric cancer cells in nude mouse; type: in vivo; conditions: nude BALB/c-nu/nu mouse, MKN45 subcutaneous, 0.23 mg/mouse 25 μM intraperitoneal twice per week, day 33
Protocol: MKN45 gastric cancer cells were subcutaneously inoculated into the flank of mouse, and 1 week later (day 0), 25 μM of HUHS1015 and 25 μM of naftopidil were intraperitoneally administered (twice/1 week). As a control, a mouse administered with saline was used. The time-course changes (A) of the tumor volume (mean±SEM, n=7) and the results (B) of tumor weight (mean±SEM, n=7) after the lapse of 33 days are shown. P value, Dunnett's test. NS, not significant
Nude BALB/c-nu/nu mouse (male, 6 week-old) was purchased from Japan SLC, Inc. (Shizuoka, Japan). MKN45 cells (1×10^7 cells) were suspended in a culture medium (200 μl) containing Matrigel (BD Biosciences, San Jose, Calif., USA) and subcutaneously inoculated to the flank of the mouse under general anesthesia with pentobarbital. HUHS1015 (0.23 mg/mouse 25 μM) or naftopidil (0.25 mg/mouse 25 μM) was diluted with saline. At 1 week (Day 0) after inoculation, intraperitoneal administration of saline, HUHS1015 or naftopidil twice per week was started. The longitudinal length (L) and transverse length (S) of the inoculated tumor were measured with calipers, and the tumor volume (V) was calculated from the following formula: V=L×S^2×1/2 The mouse was sacrificed on day 33, the tumor was isolated and the weight thereof was measured.

[9] = malignant mesothelioma cell lines, 1-100 μM

## COc1ccccc1N1CCN(CC(O)COc2cccc3ccccc23)CC1 (racemic) [naftopidil, (±)-1-[4-(2-methoxyphenyl)piperazinyl]-3-(1-naphthyloxy)propan-2-ol, reference compound]
[1]; all examined malignant mesothelioma cell lines, 1-100 μM
  cell viability (MTT): reduced the cell viability in a concentration dependent manner
[1]; malignant mesothelioma cell lines, concentration of 100 µM, % control
  cell viability (MTT): ~0%

## COc1cccc(N2CCN(CC(O)COc3cccc4ccccc34)CC2)c1 (stereo not shown) [HUHS1002, 1-(4-(3-methoxyphenyl)piperazinyl)-3-(1-naphthyloxyl)propan-2-ol, reference compound]
[1]; [9]
  activity in reducing cell viability (MTT): high activity

## OC(COc1cccc2ccccc12)CN1CCN(c2ccccc2)CC1 (stereo not shown) [HUHS1004, 3-(1-naphthyloxy)-1-(4-phenylpiperazinyl)propan-2-ol]
[1]; [9]
  activity in reducing cell viability (MTT): high activity

## OC(COc1cccc2ccccc12)CN1CCN(c2ccccc2Cl)CC1 (stereo not shown) [HUHS1014, 1-(4-(2-chlorophenyl)piperazinyl)-3-(1-naphthyloxy)-propan-2-ol]
[1]; [9]
  activity in reducing cell viability (MTT): high activity

## COc1ccccc1NCCNCC(O)COc1cccc2ccccc12 (stereo not shown) [HUHS1015, 1-((2-((2-methoxyphenyl)amino)ethyl)amino)-3-(1-naphthyloxy)propan-2-ol]
[2]
  cell viability (MTT): reduced the cell viability in a concentration dependent manner
[3]
  cell viability (MTT): reduced the cell viability in a concentration dependent manner
[1]; [9]
  activity in reducing cell viability (MTT): high activity
[4]
  cell viability (MTT): reduced the cell viability in a concentration dependent manner
[5]
  cell viability (MTT): reduced the cell viability in a concentration dependent manner
[6]
  cell viability (MTT): reduced the cell viability in a concentration dependent manner
[7]
  cell viability (MTT): reduced the cell viability in a concentration dependent manner
[8]
  antitumor effect on gastric cancer (tumor volume, tumor weight): superior to naftopidil

## COc1ccccc1C1CCN(CC(O)COc2cccc3ccccc23)CC1 (stereo not shown) [HUHS1017, 1-(4-(2-methoxyphenyl)piperidin-1-yl)-3-(1-naphthyloxyl)propan-2-ol]
[1]; [9]
  activity in reducing cell viability (MTT): high activity

## CCCCCCCN1CCN(CC(O)COc2cccc3ccccc23)CC1 (stereo not shown) [HUHS1018, 1-(4-heptylpiperazinyl)-3-(1-naphthyloxyl)propan-2-ol]
[1]; [9]
  activity in reducing cell viability (MTT): high activity

## CCCCCCCCN1CCN(CC(O)COc2cccc3ccccc23)CC1 (stereo not shown) [HUHS1019, 3-(1-naphthyloxy)-1-(4-octylpiperazinyl)propan-2-ol]
[1]; [9]
  activity in reducing cell viability (MTT): high activity
